Assay results as given in patent US20160340683A1, “NANOCARRIER BASED PLANT TRANSFECTION AND TRANSDUCTION” (HER MAJESTY THE QUEEN IN RIGHT OF CANADA AS REPRESENTED BY …, priority 2007, published 2016).

What was measured:
[1] = test system: immature embryos; assay: Fluorimetry analysis of relative fluorescence uptake by embryos; format: cell-based, Triticale cv AC Alta; details: permeabilized and non-permeabilized embryos
Protocol: The embryos were isolated from spikes two weeks post-anthesis (scutellum diameter 1-2 mm). The immature seeds were surface sterilized with 70% ethanol for 30 s followed by treatment with 10% hypochlorite (Chlorex) and a drop of Tween 20, 3 min. Four washings of 1 min each were given with sterile water. The embryos were hand dissected under sterile conditions. Isolated embryos were placed on GEM medium (Eudes et al, 2003) for 24 h in dark at room temperature prior to CPP translocation studies.
Isolated and sterilized embryos (20-25) were imbibed in total volume of 420 μl permeabilization buffer (15 mM sodium chloride, 1.5 mM sodium citrate, pH 7.1) containing cellular permeabilization agent toluene/ethanol (1:4) in 1:20 ratio with permeabilization buffer. To this 2.1 μl of 1 mM fluoresceinated CPP was added to give a final concentration of 5 μM. […] Embryos were washed two times with permeabilization buffer and subjected either for fluorescence microscopy or spectrofluorimetric analysis.
For fluorimetric analysis, the embryos were treated with 500 μl of 1% Triton X-100 (prepared in permeabilization buffer), 30 min, at 4° C. The supernatant was collected in a fresh tube and relative fluorescence uptake by the embryos with different CPPs was estimated by fluorimeter (Biorad, Versafluor, USA Excitation 490/Emission 520).

[2] = test system: root tip, leaf tip, leaf base and coleoptile; details: 5 μM fluorescently labeled peptide
Protocol: Triticale seeds were washed with detergent and grown on moist cotton for one week. The root tip, leaf tip, leaf base and coleoptile were excised and incubated with 5 μM of fluorescently labeled pVEC, scrambled pVEC and transportan.

With “FI-GWTLNSAGYLLGKINLKALAALAKKIL-amide [Transportan]” the “Translocation by fluorimetric analysis compared with visual observation” value [1] was “relatively greater translocation” and the “Fluorescence in excised seedling tissues” value [2] was “maximum florescence”.
